We go through four molecules from patent US20140031278A1, “Novel Glucagon Analogues” (NOVO NORDISK A/S, priority 2011, published 2014).

Data set [1] has as its target T1, glucagon receptor (Homo sapiens, UniProt P47871).
T1 construct: expressed in transfected cells
In words: Assay (I) Glucagon activity (cAMP biosensor, FLIPR). Format: cell-based. Particulars: HEK-293 cells with cloned glucagon receptor and cAMP biosensor; end point after 6 minutes. In outline:
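HEK-293 cells expressing glucagon receptor with membrane cAMP biosensor (ACTOne), calcium-dye loaded with probenecid and a PDE inhibitor.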

Data set [2] can be described thus: ThT fibrillation assay for physical stability (lag time, recovery). Format: physicochemical. Conditions: absence of increased ThT fluorescence noted as lag time of 45 hours. An excerpt:
This has traditionally been measured by visual inspection of the sample. However, that kind of measurement is very subjective and depending on the observer. Therefore, the application of a small molecule indicator probe is much more advantageous. […] Enzymol.
Here, F is the ThT fluorescence at the time t.
The lag-time corresponds to the interval in which the critical mass of nucleus is built up and the apparent rate constant is the rate with which the fibril itself is formed.
Samples were prepared freshly before each assay. […] The pH of the sample was adjusted to the desired value using appropriate amounts of concentrated NaOH and HCl.
The plate was sealed with Scotch Pad (Qiagen).
Each run was initiated by incubating the plate at the assay temperature for 10 min. The plate was measured every 20 minutes for a desired period of time. Between each measurement, the plate was shaken and heated as described.
The supernatant was filtered through a 0.22 μm filter and an aliquot was transferred to a HPLC vial.
The data set may be fitted to Eq. (1).

Molecules are shown by their SMILES. *1 amine or outer side, *2 acyl side, *3 side chain or, on linkers, in order; H or OH if unused. Where a SMILES comes first, the peptide text is derived from it. Side-chain parts run from the residue outwards. [ ]: non-standard residue; d: D form. γGlu = O=C(O)[C@H](CCC(=O)[*:2])N[*:1]; Aib = CC(C)(N)C(=O)O

T1 sequence (P47871 26-477): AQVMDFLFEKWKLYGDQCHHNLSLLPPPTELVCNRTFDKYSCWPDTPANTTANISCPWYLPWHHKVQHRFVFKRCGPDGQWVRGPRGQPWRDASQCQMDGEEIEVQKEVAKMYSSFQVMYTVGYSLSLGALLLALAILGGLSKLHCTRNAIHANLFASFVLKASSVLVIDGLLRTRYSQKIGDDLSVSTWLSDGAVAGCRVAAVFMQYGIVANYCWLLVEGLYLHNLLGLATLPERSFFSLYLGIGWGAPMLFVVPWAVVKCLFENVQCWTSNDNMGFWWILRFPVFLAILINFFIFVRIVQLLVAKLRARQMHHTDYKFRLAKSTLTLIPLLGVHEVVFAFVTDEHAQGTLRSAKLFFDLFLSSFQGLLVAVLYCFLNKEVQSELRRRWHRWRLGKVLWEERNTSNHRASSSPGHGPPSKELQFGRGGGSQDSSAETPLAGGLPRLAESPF

In turn, `CC(=O)N[C@@H](CCC(=O)N[C@@H](CCC(=O)N[C@@H](CCC(=O)N[C@@H](CCC(=O)NCCCC[C@H](NC(=O)[C@@H](NC(=O)[C@H](Cc1ccccc1)NC(=O)[C@H](CCC(=O)O)NC(=O)[C@H](C)NC(=O)[C@H](C)NC(=O)[C@H](CCCNC(=N)N)NC(=O)[C@H](CCCNC(=N)N)NC(=O)[C@@H](NC(=O)[C@H](CC(=O)O)NC(=O)[C@H](CC(C)C)NC(=O)[C@H](Cc1ccc(O)cc1)NC(=O)[C@H](CCCCN)NC(=O)[C@H](CO)NC(=O)[C@H](Cc1ccc(O)cc1)NC(=O)[C@H](CC(=O)O)NC(=O)[C@H](CO)NC(=O)[C@@H](NC(=O)[C@H](Cc1ccccc1)NC(=O)[C@@H](NC(=O)CNC(=O)[C@H](Cc1c[nH]cn1)NC(=O)C(C)(C)NC(=O)[C@@H](N)Cc1c[nH]cn1)[C@@H](C)O)[C@@H](C)O)C(C)C)C(C)C)C(=O)N[C@@H](Cc1c[nH]c2ccccc12)C(=O)N[C@@H](CC(C)C)C(=O)N[C@@H](CC(C)C)C(=O)N[C@@H](CO)C(=O)N[C@H](C(=O)O)[C@@H](C)O)C(=O)O)C(=O)O)C(=O)O)C(=O)O` [Example 48, N^ε24-[(4S)-4-[[(4S)-4-[[(4S)-4-[[(4S)-4-acetamido-4-carboxybutanoyl]amino]-4-carboxybutanoyl]amino]-4-carboxybutanoyl]amino]-4-carboxybutanoyl]-[Aib^2,His^3,Val^16,Ala^20,Glu^21,Lys^24,Leu^27,Ser^28]-Glucagon] (H-H[Aib]HGTFTSDYSKYLDVRRAAEFVK([γGlu-γGlu-γGlu-γGlu-Ac])WLLST-OH) had a 50% effective concentration (EC50) in data set [1] of 5 pM. Besides, the “ThT assay [Lag time]” value in data set [2] is 14 h.
With `CC(=O)N[C@@H](CCC(=O)N[C@@H](CCC(=O)N[C@@H](CCC(=O)N[C@@H](CCC(=O)NCCCC[C@H](NC(=O)[C@@H](NC(=O)[C@H](Cc1ccccc1)NC(=O)[C@H](CCC(=O)O)NC(=O)[C@H](C)NC(=O)[C@H](C)NC(=O)[C@H](CCCNC(=N)N)NC(=O)[C@H](CCCNC(=N)N)NC(=O)[C@@H](NC(=O)[C@H](CC(=O)O)NC(=O)[C@H](CC(C)C)NC(=O)[C@H](Cc1ccc(O)cc1)NC(=O)[C@H](CCCCN)NC(=O)[C@H](CO)NC(=O)[C@H](Cc1ccc(O)cc1)NC(=O)[C@H](CC(=O)O)NC(=O)[C@H](CO)NC(=O)[C@@H](NC(=O)[C@H](Cc1ccccc1)NC(=O)[C@@H](NC(=O)CNC(=O)[C@H](Cc1c[nH]cn1)NC(=O)[C@H](C)NC(=O)[C@@H](N)Cc1c[nH]cn1)[C@@H](C)O)[C@@H](C)O)C(C)C)C(C)C)C(=O)N[C@@H](Cc1c[nH]c2ccccc12)C(=O)N[C@@H](CC(C)C)C(=O)N[C@@H](CC(C)C)C(=O)N[C@@H](CO)C(=O)N[C@H](C(=O)O)[C@@H](C)O)C(=O)O)C(=O)O)C(=O)O)C(=O)O` [Example 47, N^ε24-[(4S)-4-[[(4S)-4-[[(4S)-4-[[(4S)-4-acetamido-4-carboxybutanoyl]amino]-4-carboxybutanoyl]amino]-4-carboxybutanoyl]amino]-4-carboxybutanoyl]-[Ala^2,His^3,Val^16,Ala^20,Glu^21,Lys^24,Leu^27,Ser^28]-Glucagon] (H-HAHGTFTSDYSKYLDVRRAAEFVK([γGlu-γGlu-γGlu-γGlu-Ac])WLLST-OH), in data set [1], a half-maximal effect (EC50) was put at 9 pM.
Turning to `CC(=O)N[C@@H](CCC(=O)N[C@@H](CCC(=O)N[C@@H](CCC(=O)N[C@@H](CCC(=O)NCCCC[C@H](NC(=O)[C@@H](NC(=O)[C@H](Cc1ccccc1)NC(=O)[C@H](CC(=O)O)NC(=O)[C@H](CCC(N)=O)NC(=O)[C@H](C)NC(=O)[C@H](CCCNC(=N)N)NC(=O)[C@H](CCCNC(=N)N)NC(=O)[C@H](Cc1c[nH]c2ccccc12)NC(=O)[C@H](CC(=O)O)NC(=O)[C@H](CC(C)C)NC(=O)[C@H](Cc1ccc(O)cc1)NC(=O)[C@H](CCCCN)NC(=O)[C@H](CO)NC(=O)[C@H](Cc1ccc(O)cc1)NC(=O)[C@H](CC(=O)O)NC(=O)[C@H](CO)NC(=O)[C@@H](NC(=O)[C@H](Cc1ccccc1)NC(=O)[C@@H](NC(=O)CNC(=O)[C@H](CCC(N)=O)NC(=O)[C@H](CO)NC(=O)[C@@H](N)Cc1c[nH]cn1)[C@@H](C)O)[C@@H](C)O)C(C)C)C(=O)N[C@@H](Cc1c[nH]c2ccccc12)C(=O)N[C@@H](CC(C)C)C(=O)N[C@@H](CC(C)C)C(=O)N[C@@H](CO)C(=O)N[C@H](C(=O)O)[C@@H](C)O)C(=O)O)C(=O)O)C(=O)O)C(=O)O` [Example 34], the EC50 in data set [1] stood at 2.3 pM.
For `CC(C)C[C@H](NC(=O)[C@H](Cc1ccc(O)cc1)NC(=O)[C@H](CCCNC(=N)N)NC(=O)[C@H](CO)NC(=O)[C@H](Cc1ccc(O)cc1)NC(=O)[C@H](CC(=O)O)NC(=O)[C@H](CO)NC(=O)[C@@H](NC(=O)[C@H](Cc1ccccc1)NC(=O)[C@@H](NC(=O)CNC(=O)[C@H](Cc1c[nH]cn1)NC(=O)[C@H](CO)NC(=O)[C@@H](N)Cc1c[nH]cn1)[C@@H](C)O)[C@@H](C)O)C(=O)N[C@@H](CCC(=O)O)C(=O)N[C@@H](CO)C(=O)N[C@@H](CCCNC(=N)N)C(=O)N[C@@H](CCCNC(=N)N)C(=O)N[C@@H](C)C(=O)N[C@@H](C)C(=O)N[C@@H](CC(=O)O)C(=O)N[C@@H](Cc1ccccc1)C(=O)N[C@H](C(=O)N[C@@H](CCCCNC(=O)CC[C@H](NC(=O)CC[C@H](NC(=O)CC[C@H](NC(=O)CC[C@H](N)C(=O)O)C(=O)O)C(=O)O)C(=O)O)C(=O)N[C@@H](Cc1c[nH]c2ccccc12)C(=O)N[C@@H](CC(C)C)C(=O)N[C@@H](CC(C)C)C(=O)N[C@@H](CO)C(=O)N[C@H](C(=O)O)[C@@H](C)O)C(C)C` [Example 6, N^ε24-[(4S)-4-[[(4S)-4-[[(4S)-4-[[(4S)-4-amino-4-carboxybutanoyl]amino]-4-carboxybutanoyl]amino]-4-carboxybutanoyl]amino]-4-carboxybutanoyl]-[His3,Arg12,Glu15,Ala20,Lys24,Leu27,Ser28]-Glucagon] (H-HSHGTFTSDYSRYLESRRAADFVK([γGlu-γGlu-γGlu-γGlu])WLLST-OH), a half-maximal effect in data set [1] (EC50) was put at 79.5 pM.
